{"source": "patent US8552145B2", "about": "“Vaccine for modulating between T1 and T2 immune responses” (priority 2001, dated 2013)", "key": {"[1]": {"test_system": "BP1-151HSA conjugate (MUC1 24 amino acid peptide conjugated to HSA)", "test": "Anti-MUC1 IgG levels (serum ELISA) in MUC1 transgenic mice, BP1-151 HSA solid phase", "type": "in vivo, C57Bl/6 MUC1 transgenic mice", "settings": "Protocol 1347C, 4 immunizations, individual mouse", "source_text": "To further characterize the observed phenomenon, MUC I transgenic mice were immunized with MUC I based liposomal formulations containing mono- or dilipopeptides."}, "[2]": {"test_system": "BP1-151HSA conjugate (MUC1 24 amino acid peptide conjugated to HSA)", "test": "Anti-MUC1 antibody levels (serum ELISA) after immunization, BP1-151-HSA solid phase", "type": "in vivo, C57BL/6 mice", "settings": "for antibody levels / humoral immunity (in words): immunized mice, liposomal formulations containing lipid A adjuvant", "method": "(§1) MUC1 based liposomal vaccines (“BLP25 liposomal vaccines”) at a dose of 100 μg (250 μl) was injected subcutaneously, two, three, or four times, at biweekly intervals, into right and left inguinal regions (125 μl per each site)."}, "[3]": {"test_system": "Blend C (natural human MUC1 mucin purified from ovarian cancer ascites)", "sequence (P15941 24-1255)": "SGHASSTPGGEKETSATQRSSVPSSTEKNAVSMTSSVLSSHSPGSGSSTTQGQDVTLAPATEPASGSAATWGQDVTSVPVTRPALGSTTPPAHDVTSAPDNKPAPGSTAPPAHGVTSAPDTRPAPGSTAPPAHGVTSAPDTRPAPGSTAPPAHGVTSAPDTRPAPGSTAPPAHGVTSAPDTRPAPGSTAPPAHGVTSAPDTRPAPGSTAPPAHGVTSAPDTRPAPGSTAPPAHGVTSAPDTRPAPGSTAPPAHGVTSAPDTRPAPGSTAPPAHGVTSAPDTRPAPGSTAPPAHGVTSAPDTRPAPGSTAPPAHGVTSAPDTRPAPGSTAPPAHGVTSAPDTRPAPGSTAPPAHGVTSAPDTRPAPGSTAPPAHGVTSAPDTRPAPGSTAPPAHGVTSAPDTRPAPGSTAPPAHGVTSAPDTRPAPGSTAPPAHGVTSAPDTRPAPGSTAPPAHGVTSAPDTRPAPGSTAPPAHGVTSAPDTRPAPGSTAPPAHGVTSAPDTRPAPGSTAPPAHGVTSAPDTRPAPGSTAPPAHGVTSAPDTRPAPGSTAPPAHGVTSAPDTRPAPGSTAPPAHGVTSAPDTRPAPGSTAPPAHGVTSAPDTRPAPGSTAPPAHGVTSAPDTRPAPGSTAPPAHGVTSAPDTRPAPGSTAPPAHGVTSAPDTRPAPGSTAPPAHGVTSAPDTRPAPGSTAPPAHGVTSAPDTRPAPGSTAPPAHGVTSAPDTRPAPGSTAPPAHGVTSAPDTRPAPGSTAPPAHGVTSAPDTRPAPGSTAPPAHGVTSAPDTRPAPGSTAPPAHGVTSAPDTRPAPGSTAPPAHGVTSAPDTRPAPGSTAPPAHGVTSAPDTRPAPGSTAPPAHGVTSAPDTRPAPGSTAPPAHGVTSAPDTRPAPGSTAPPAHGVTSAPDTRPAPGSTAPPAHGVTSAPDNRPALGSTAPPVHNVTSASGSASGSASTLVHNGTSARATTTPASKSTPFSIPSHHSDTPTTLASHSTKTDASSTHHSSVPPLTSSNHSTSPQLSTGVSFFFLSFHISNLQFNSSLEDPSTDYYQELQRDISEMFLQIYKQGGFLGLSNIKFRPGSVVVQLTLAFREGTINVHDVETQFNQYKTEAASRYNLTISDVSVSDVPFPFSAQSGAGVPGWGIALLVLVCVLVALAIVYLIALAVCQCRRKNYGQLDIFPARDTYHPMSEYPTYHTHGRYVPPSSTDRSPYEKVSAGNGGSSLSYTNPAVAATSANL", "test": "Anti-MUC1 antibody levels (serum ELISA) after immunization, Blend C solid phase", "type": "in vivo", "settings": "Protocol 1346; C57Bl/6 mice immunized two times, subcutaneously; individual mouse", "method": "as §1"}}, "note": "No end group written: not given here.", "data": [{"substance": "GVTSAPDTRPAPGSTAS(myristyl)S(myristyl)L [BP1-217]", "values": [{"measurement": "Antibody Titer, IgG, BP1-151 HSA", "setting": "[1]", "value": "strong IgG antibody response"}]}, {"substance": "GVTSAPDTRPAPGSTAS(myristyl)L [BP1-228]", "values": [{"measurement": "Antibody Titer, IgG, BP1-151-HSA", "setting": "[2]; Protocol 1346, C57Bl/6 mice immunized two times, subcutaneously, individual mouse", "value": "only low titers"}, {"measurement": "antibody levels / humoral immunity (in words)", "setting": "[2]", "value": "very low or no antibody levels"}, {"measurement": "Antibody Titer, IgG, Blend C", "setting": "[3]", "value": "no antibodies were detected"}, {"measurement": "Antibody Titer, IgG, BP1-151 HSA", "setting": "[1]", "value": "very low titers of IgG"}]}, {"substance": "TAPPAHGVTSAPDTRPAPGSTAPPK(palmitate)K(palmitate)G [BP1-132A]", "values": [{"measurement": "antibody levels / humoral immunity (in words)", "setting": "[2]", "value": "induce humoral immunity"}]}]}
